In general, EC50 refers to the concentration at which the effect is half-maximal.

The record followed here is patent publication US8618163B2, “Derivatives of cycloalkyl- and cycloalkenyl-1,2-dicarboxylic acid compounds having formyl peptide receptor like-1 (FPRL-1) agonist or antagonist activity” (Allergan, Inc., priority 2010, dated 2013).

Where two headings read alike, the source gives them in different places.

One test concerns the target T1, FPRL1 (Homo sapiens, UniProt P25090).
T1 construct: expressed in transfected cells; host or cells: CHO-Gal6 (CHO cells with G alpha 16)
T1 sequence (P25090 1-351): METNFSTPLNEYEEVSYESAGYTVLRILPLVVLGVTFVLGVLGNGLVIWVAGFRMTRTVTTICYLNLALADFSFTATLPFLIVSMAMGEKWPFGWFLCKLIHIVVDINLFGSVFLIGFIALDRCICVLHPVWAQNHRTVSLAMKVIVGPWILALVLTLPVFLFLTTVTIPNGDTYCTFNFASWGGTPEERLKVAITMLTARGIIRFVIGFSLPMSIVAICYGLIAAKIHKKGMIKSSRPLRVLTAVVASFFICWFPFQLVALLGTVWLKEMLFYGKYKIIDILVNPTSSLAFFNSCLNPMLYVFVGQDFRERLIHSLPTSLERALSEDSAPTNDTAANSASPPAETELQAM
The test is described as follows: compound-induced calcium activity on FLIPR Tetra in CHO-Gal6 cells stably expressing FPRL1. It counts as cell-based. Conditions: for FPRL1 (rel. eff.): relative efficacy. Put shortly: (§1)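 FPRL1 tested in CHO-Gal6 cells and FPR1 in HEK-Gqi5 cells, both stably expressing receptor and plated the day before. Compound-induced calcium response measured on FLIPR Tetra at 0.61 to 10,000 nM. EC50 (nM) and efficacy reported.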

The next test addresses T2, FPR1 (Homo sapiens, UniProt P21462).
T2 construct: expressed in transfected cells; host or cells: HEK-Gqi5 (HEK cells with chimeric G protein Gqi5)
T2 sequence (P21462 1-350): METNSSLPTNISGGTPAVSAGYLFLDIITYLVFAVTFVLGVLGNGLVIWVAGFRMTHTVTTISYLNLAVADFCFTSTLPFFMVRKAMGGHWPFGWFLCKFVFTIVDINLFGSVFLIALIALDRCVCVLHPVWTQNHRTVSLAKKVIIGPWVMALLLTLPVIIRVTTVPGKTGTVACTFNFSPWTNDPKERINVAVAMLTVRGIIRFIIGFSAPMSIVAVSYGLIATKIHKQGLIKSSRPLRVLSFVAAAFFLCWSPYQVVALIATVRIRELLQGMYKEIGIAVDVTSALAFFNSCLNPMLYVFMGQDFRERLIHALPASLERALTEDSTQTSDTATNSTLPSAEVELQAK
The test is described as follows: compound-induced calcium activity on FLIPR Tetra in HEK-Gqi5 cells stable expressing FPR1. It counts as cell-based. Details: FPR1 (rel. eff.): scale not given here. To be noted: for FPR1 (rel. eff.): relative efficacy. The procedure, abridged: as §1

Setting [1] is: calcium, FLIPR Tetra, tested 0.61 to 10,000 nM, read-out: FPRL1 EC50.
Where [2] appears, read: class symbol NA, read-out: FPR1 EC50 (NA = Not Active).
Where [3] appears, read: class symbol NA, read-out: FPRL1 EC50 (NA = Not Active).

Take `NC(=O)[C@@H]1[C@H](C(=O)Nc2ccc(I)cc2)[C@@H]2CC[C@H]1C21CC1` (racemic) [Compound 62, (+/−)-(1S,2R,3S,4R)—N^2-(4-Iodophenyl)-[bicyclo[2.2.1]heptane-7,1′-cyclopropane]-2,3-dicarboxamide]: the EC50 at FPRL1 (setting [1]) is 0.005 µM; on FPR1 (setting [2]), greater than 10 µM. On FPRL1 (calcium, FLIPR Tetra), the “FPRL1 (rel. eff.)” value was found to be 0.89.
Take `CC(=O)Nc1ccc(NC(=O)[C@H]2[C@@H](C(=O)O)[C@H]3CC[C@@H]2C32CC2)cc1` (racemic) [Compound 75, (+/−)-(1S,2R,3S,4R)-2-((4-Acetamidophenyl)carbamoyl)spiro[bicyclo[2.2.1]-heptan-7,1′-cyclopropane]-3-carboxylic Acid]: the EC50 on FPRL1 (setting [3]) and at FPR1 (setting [2]) was greater than 10 µM in each case.
Turning to `CC(C)(C)c1ccc(NC(=O)C2C(C(=O)O)C3C=CC2C32CC2)cc1` (racemic) [Compound 5, (+/−)-(1R,4S,5R,6S)-5-(4-tert-Butylphenylcarbamoyl)spiro[bicyclo[2.2.1]hept[2]ene-7,1′-cyclopropane]-6-carboxylic Acid], the EC50 on FPRL1 (setting [3]) and on FPR1 (setting [2]) was greater than 10 µM each time.
For `O=C(O)C1C(C(=O)Nc2ccc(Cl)c(Cl)c2)C2C=CC1C21CC1` (racemic) [Compound 28, (+/−)-(1S,4R,5S,6R)-6-((3,4-Dichlorophenyl)carbamoyl)spiro[bicyclo[2.2.1]hept[2]-ene-7,1′-cyclopropane]-5-carboxylic Acid], the EC50 on FPRL1 (setting [1]) is 0.616 µM; on FPR1 (setting [2]), greater than 10 µM. Also, the “FPRL1 (rel. eff.)” value on FPRL1 (calcium, FLIPR Tetra) came to 0.70.
For `CSc1ccc(NC(=O)C2C(C(=O)O)C3C=CC2C32CC2)cc1` (racemic) [Compound 35, (+/−)-(1S,4R,5S,6R)-6-((4-(Methylthio)phenyl)carbamoyl)spiro[bicyclo-[2.2.1]hept[2]ene-7,1′-cyclopropane]-5-carboxylic Acid] the same measures were 0.014 µM, greater than 10 µM and 0.85.
For `CC(C)NC(=O)[C@@H]1[C@H](C(=O)Nc2ccc(Br)cc2)[C@@H]2CC[C@H]1C21CC1` (racemic) [Compound 79, (+/−)-(1S,2R,3S,4R)—N^2-(4-Bromophenyl)-N^3-isopropylspiro[bicyclo[2.2.1]heptane-7,1′-cyclopropane]-2,3-dicarboxamide], in that order: 0.0066 µM, greater than 10 µM and 1.0.
As to `CC1(C)[C@@H]2CC[C@H]1[C@@H](C(=O)Nc1ccc(Br)cc1)[C@H]2C(=O)O` (racemic) [Compound 13, (+/−)-(1R,2S,3R,4S)-3-(4-Bromophenylcarbamoyl)-7,7-dimethylbicyclo[2.2.1]heptane-2-carboxylic Acid], at FPRL1 (calcium, FLIPR Tetra), the “FPRL1 (rel. eff.)” value came out at 0.85. For the same compound, the EC50 on FPR1 (calcium, FLIPR Tetra, tested 0.61 to 10,000 nM, read-out: FPR1 EC50) was found to be 0.639 µM. Besides, the “FPR1 (rel. eff.)” value at FPR1 (calcium, FLIPR Tetra) is given as 0.33.
`O=C(Nc1ccc(Br)cc1)[C@H]1[C@@H](CO)[C@H]2CC[C@@H]1C21CC1` (racemic) [Compound 59, (+/−)-(1S,2R,3S,4R)—N-(4-Bromophenyl)-3-(hydroxymethyl)spiro[bicyclo[2.2.1]-heptane-7,1′-cyclopropane]-2-carboxamide]: the concentration for a half-maximal effect (EC50) at FPRL1 (in μM, read-out: FPRL1 EC50) was greater than 10 µM; on FPR1 (setting [2]), greater than 10 µM. The “FPRL1 (rel. eff.)” value on FPRL1 (calcium, FLIPR Tetra) was 0.76.
In the case of `Cc1cc(Br)cc(C)c1NC(=O)[C@@H]1[C@H](C(=O)O)[C@@H]2CC[C@H]1C21CC1` (racemic) [Compound 73, (+/−)-(1R,2S,3R,4S)-2-((4-Bromo-2,6-dimethylphenyl)carbamoyl)spiro[bicyclo[2.2.1]-heptane-7,1′-cyclopropane]-3-carboxylic Acid], the EC50 on FPRL1 (setting [1]) is 2.12 µM; on FPR1 (setting [2]), greater than 10 µM. In addition, the “FPRL1 (rel. eff.)” value on FPRL1 (calcium, FLIPR Tetra) is 0.67.
As for `O=C(O)C1C(C(=O)Nc2ccccc2)C2C=CC1C21CC1` (racemic) [Compound 7, (+/−)-(1S,4R,5S,6R)-6-(Phenylcarbamoyl)spiro[bicycle[2.2.1]hept[2]ene-7,1′cyclopropane]-5-carboxylic Acid], the “FPRL1 (rel. eff.)” value at FPRL1 (calcium, FLIPR Tetra) is “ND (0.33)”. Also, on FPR1 (setting [2]), the EC50 is greater than 10 µM.
For the compound `CCc1ccc(NC(=O)[C@H]2[C@@H](C(N)=O)[C@H]3CC[C@@H]2C32CC2)cc1` (racemic) [Compound 68, (+/−)-(1S,2R,3S,4R)—N^2-(4-Ethyl-phenyl)-spiro[bicyclo[2.2.1]heptane-7,1′-cyclopropane]-2,3-dicarboxamide], the EC50 is 0.0381 µM on FPRL1 (setting [1]) and greater than 10 µM at FPR1 (setting [2]). In addition, the “FPRL1 (rel. eff.)” value at FPRL1 (calcium, FLIPR Tetra) was 1.0.
Consider `CCc1ccc(NC(=O)[C@H]2[C@@H](C(N)=O)[C@H]3CC[C@@H]2C3(C)C)cc1` (racemic) [Compound 65, (+/−)-(1S,2R,3S,4R)—N^2-(4-Ethylphenyl)-7,7-dimethyl-bicyclo[2.2.1]heptane-2,3-dicarboxamide], for which the EC50 on FPRL1 (setting [1]) is 0.035 µM; at FPR1 (setting [2]) it was greater than 10 µM. Besides, on FPRL1 (calcium, FLIPR Tetra), the “FPRL1 (rel. eff.)” value was found to be 0.95.
For `C[S+]([O-])c1ccc(NC(=O)C2C(C(=O)O)C3CCC2C32CC2)cc1` (racemic) [Compound 70, (+/−)-(1R,2S,3R,4S)-3-((4-Methylsulfinyl)phenyl)carbamoyl)spiro[bicyclo[2.2.1]-heptane-7,1′-cyclopropane]-2-carboxylic Acid], in that order: 0.475 µM, greater than 10 µM and 0.95.
For `O=C(O)C1C(C(=O)Nc2ccc(OC(F)(F)F)cc2)C2C=CC1C21CC1` (racemic) [Compound 34, (+/−)-(1S,4R,5S,6R)-6-β4-(Trifluoromethoxy)phenyl)carbamoyl)spiro[bicyclo-[2.2.1]hept[2]ene-7,1′-cyclopropane]-5-carboxylic Acid], in that order: 0.585 µM, greater than 10 µM and 0.96.
For `CSc1ccc(NC(=O)C2C(C(N)=O)C3C=CC2C32CC2)cc1` (racemic) [Compound 49, (+/−)-(1R,4S,5R,6S)—N-5-(4-(Methylthio)phenyl)spiro[bicyclo[2.2.1]hept[2]ene-7,1′-cyclopropane]-5,6-dicarboxamide], in that order: 0.097 µM, greater than 10 µM and 0.90.
`CC(=O)c1ccc(NC(=O)[C@H]2[C@@H](C(=O)O)[C@H]3CC[C@@H]2C32CC2)cc1` (racemic) [Compound 43, (+/−)-(1S,2R,3S,4R)-2-((4-Acetylphenyl)carbamoyl)spiro[bicyclo[2.2.1]heptane-7,1′-cyclopropane]-3-carboxylic Acid]: the EC50 was 0.049 µM on FPRL1 (setting [1]) and greater than 10 µM on FPR1 (cells printed in μM, read-out: FPR1 EC50). Besides, the “FPRL1 (rel. eff.)” value on FPRL1 (calcium, FLIPR Tetra) amounted to 0.71. For the same compound, at FPR1 (calcium, FLIPR Tetra), the “FPR1 (rel. eff.)” value is recorded as 0.50.
In the case of `O=C(Nc1ccccc1)[C@H]1[C@@H](C=NO)[C@H]2CC[C@@H]1C21CC1` (racemic) [Compound 94, (+/−)-(1S,2R,3S,4R)-3-((Hydroxyimino)methyl)-N-phenylspiro[bicyclo[2.2.1]heptane-7,1′-cyclopropane]-2-carboxamide], the values for the EC50 on FPRL1 (setting [1]) and on FPR1 (setting [2]) were 2.83 µM and greater than 10 µM, respectively. For the same compound, the “FPRL1 (rel. eff.)” value at FPRL1 (calcium, FLIPR Tetra) came to 0.49.
Take `NS(=O)(=O)c1ccc(NC(=O)C2C(C(=O)O)C3C=CC2C32CC2)cc1` (racemic) [Compound 8, (+/−)-(1S,4R,5S,6R)-6-(4-Sulfamoylphenylcarbamoyl)spiro[bicyclo[2.2.1]hept[2]ene-7,1′-cyclopropane]-5-carboxylic Acid]: the values for the EC50 at FPRL1 (setting [1]) and on FPR1 (setting [2]) were 2.71 µM and greater than 10 µM, respectively. Moreover, the “FPRL1 (rel. eff.)” value at FPRL1 (calcium, FLIPR Tetra) came to 0.51.
For `CCc1ccc(NC(=O)[C@H]2[C@@H](C(=O)O)[C@H]3CC[C@@H]2C32CC2)cc1` (racemic) [Compound 40, (+/−)-(1R,2S,3R,4S)-3-((4-Ethylphenyl)carbamoyl)spiro[bicyclo[2.2.1]heptane-7,1′-cyclopropane]-2-carboxylic Acid] the same measures were 0.016 µM, greater than 10 µM and 0.79.
For `O=C(OCc1ccccc1)[C@@H]1[C@H](C(=O)Nc2ccc(Br)cc2)[C@@H]2CC[C@H]1C21CC1` (racemic) [Compound 85, (+/−)-(1S,2R,3S,4R)-Benzyl 2-((4-bromophenyl)carbamoyl)spiro[bicyclo[2.2.1]heptane-7,1′-cyclopropane]-3-carboxylate], in that order: 2.14 µM, greater than 10 µM and 0.88.
For `O=C(O)C1C(C(=O)Nc2ccc(Br)cc2)C2CCC1C21CC1` (racemic) [Compound 10A] the same measures were 0.278 µM, greater than 10 µM and 0.82.
